Target: T1, h-rP2X7 (human 1-346, rat 347-595) (Homo sapiens, UniProt Q99572, A348T/A433Q/A445S/A505Q/C493A/C552S/D356N/D438E/D448H/D537E/D539E/E585Q/F350C/F353L/F525L/G559V/H366R/H491R/H521E/I367V/I459M/K464I/K501R/L354I/L516I/M434T/N361T/N413D/P443S/Q375E/R410W/R419K/R463Q/R514S/R544K/R576K/S359A/S390P/S407P/S481N/S490N/S540A/S584T/S593Y/T437L/T449S/T467V/T541I/V378A/V475D/V522A/V538G/W370S)
T1 construct: h-rP2X7 (human 1-346, rat 347-595); expressed in transfected cells; host or cells: HEK293 (transient)
T1 sequence (Q99572 1-595 A348T/F350C/F353L/L354I/D356N/S359A/N361T/H366R/I367V/W370S/Q375E/V378A/S390P/S407P/R410W/N413D/R419K/A433Q/M434T/T437L/D438E/P443S/A445S/D448H/T449S/I459M/R463Q/K464I/T467V/V475D/S481N/S490N/H491R/C493A/K501R/A505Q/R514S/L516I/H521E/V522A/F525L/D537E/V538G/D539E/S540A/T541I/R544K/C552S/G559V/R576K/S584T/E585Q/S593Y): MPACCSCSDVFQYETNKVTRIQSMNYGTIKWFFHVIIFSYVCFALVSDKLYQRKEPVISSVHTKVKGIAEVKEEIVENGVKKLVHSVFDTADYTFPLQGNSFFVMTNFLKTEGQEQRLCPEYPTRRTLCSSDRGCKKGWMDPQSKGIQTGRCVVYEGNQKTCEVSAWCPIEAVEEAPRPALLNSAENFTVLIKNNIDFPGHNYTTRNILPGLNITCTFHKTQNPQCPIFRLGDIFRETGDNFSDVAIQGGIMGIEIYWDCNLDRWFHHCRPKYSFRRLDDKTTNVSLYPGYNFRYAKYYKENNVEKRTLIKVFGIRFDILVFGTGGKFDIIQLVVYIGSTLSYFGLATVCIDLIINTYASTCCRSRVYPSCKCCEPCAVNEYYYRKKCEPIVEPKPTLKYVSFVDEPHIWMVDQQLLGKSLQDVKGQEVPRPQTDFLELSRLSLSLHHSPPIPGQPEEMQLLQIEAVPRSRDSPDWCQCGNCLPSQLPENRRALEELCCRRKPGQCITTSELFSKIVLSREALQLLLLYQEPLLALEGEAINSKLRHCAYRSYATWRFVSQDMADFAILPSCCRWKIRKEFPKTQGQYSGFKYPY
Assay: Whole-cell recordings in HEK293 cells expressing chimeric h-rP2X7 receptors
Type: cell-based
Details: low divalent concentrations, after removal of BzATP, n=10
Excerpt: Chimeras. A silent restriction site (NheI) was introduced at the equivalent positions in the rat and human cDNAs using the Pfu mutagenesis kit (Stratagene) (T to G at 1069 in rP2X7; G to A at 1072 in hP2X7) . A NheI-XhoI fragment corresponding to 3′ extremity of each cDNA was then excised and subcloned in the opposite plasmid (i.e. human 3′ end into rat background). The resulting chimeras were h-rP2X7 (human 1-346, rat 347-595) and r-hP2X7 (rat 1-346, human 347-595) (FIG. 5). All constructions were sequenced on their entire coding region.
Cell culture. HEK293 cells were transiently transfected with cDNA (1 μg/ml) and lipofectin dissolved in Optimem (GIBCO) placed into petri dishes containing four coverslips onto which cells were plated at a density of about 8×10^4/coverslip. Cells were washed 5 h later and normal DMEM applied. Electrophysiological studies or dye uptake measurements were carried out 18-49 h later. For each set of transfections, parallel experiments were performed on HEK cells transfected with cDNA encoding both rP2X7 and hP2X7 receptors.
Electrophysiological experiments. Whole-cell recordings were made using the EPC9 patch-clamp amplifier and Pulse acquisition programs (HEKA, Lambrecht, Germany). Patch pipettes (5-7 MΩ) contained (mM) CsCl or NaCl 154, EGTA 10, HEPES 5. […]

Nc1ncnc2c1ncn2[C@@H]1O[C@H](COP(=O)(O)OP(=O)(O)OP(=O)(O)O)[C@@H](OC(=O)c2ccc(C(=O)c3ccccc3)cc2)[C@H]1O [BzATP, 3′-O-(4-benzoyl)benzoyl ATP]
current measured at 30 s, of peak: 70±4

Reference: patent US6509163B1, “Methods of screening modulators of mammalian P2X7 purinergic receptors” (Glaxo Group Limited, priority 1997, dated 2003)
